“Also recorded” adds a separate entry of the source. Read-outs that look alike come from different tables or passages of the source.
Key:
[1] = inhaled treprostinil; cited from earlier work
IP receptor = target: T1, IP receptor (Homo sapiens, UniProt P43119); test: In-vitro agonist activity on IP receptor, FLIPR calcium test in IP/HEK293 cells; assay type: cell-based; settings: 10 concentrations, 10-fold dilutions
T1 construct: host or cells: HEK293 (IP/HEK293 cell line)
Experimental: The specific method is as follows: The IP/HEK293 cell line was provided by WuXi AppTec (Shanghai) Co., Ltd. Well-grown IP/HEK293 cells were taken out from the incubator, the culture solution was aspirated, the cells were washed with D-PBS and digested with trypsin EDTA, and then added with a cell culture solution, and the cells were fully suspended by repeated pipetting. The cells were centrifuged at room temperature, the supernatant was aspirated, a culture medium was added, and the cells were resuspended by repeated pipetting with a sterile pipette. After counting living cells with Vi-CELL™, 20 µL (20,000 cells/well) of cell suspension was added to a 384-well cell culture plate and incubated in a 5% CO2 incubator at 37°C overnight. 1 mL of FLIPR test buffer was added with 77 mg of probenecid to prepare 250 mM probenecid solution. After thawing a bottle of 2XFluo-4 DirectTM (F10471), the bottle was added with 10 mL of FLIPR test buffer containing 500 uM AEBSF, and each 10 mL of Fluo-Direct was added with 0.2 mL of probenecid, with a final concentration of 2.5 mM. The mixture was vortexed and then allowed to stand in the dark for more than 5 minutes. Each compound was placed in a water bath at 25°C for 30 minutes. Then, these compounds were sequentially diluted 10-fold with Bravo, with a total of 10 concentrations, for testing. 750 nL of each compound was transferred to a 384-well compound plate with ECHO. Then, the compound plate was added with 30 µL of detection buffer. The 384-well cell culture plate was taken out from the incubator, the culture medium was discarded, and 20 µL of test buffer and 20 µL of 2X Fluo-4 DirectTM No-Wash loading buffer were added with a pipette. The cell culture plate was incubated in a 5% CO2 incubator at 37°C for 50 minutes and incubated at room temperature for 10 minutes. The cell culture plate, the compound plate and a tip box were placed into FLIPR, FLIPRTETRA test program was operated, 10 µL of reference compound and 10 µL of test compound were aspirated from the compound plate to the cell culture plate, fluorescence signals were read, and then data were processed. The data were analyzed by using Prism.

SD rats [2] = test: U46619-induced rat acute pulmonary arterial pressure rise model, airway nebulized administration (RVSP); assay type: in vivo; settings: for antihypertensive effect and duration, overall: 1 to 48 hours after airway nebulized administration; for antihypertensive effect: equimolar to 13.3 µg/kg TRE
From the text: U46619 was a stable analogue of thromboxane A2 (TXA2), which activated the downstream IP3 signal by binding to the thromboxane A2 receptor to promote vasoconstriction, platelet aggregation and the like. Influences of compound C16-TR and equimolar compounds Ia-1, Ia-2, Ia-3, R-11 and R-12 at different time points after airway nebulized administration on pulmonary hypertension of rats were studied by using the U46619-induced rat pulmonary arterial pressure rise mode, which were compared with that of equimolar TRE after airway nebulized administration.
Preparation of test sample: a required amount of compound TRE was taken and added into a sterile EP tube, and each tube was added with an appropriate amount of DMSO for dissolution to prepare a stock solution (100 mg/mL). Compounds C16-TR, la-1, la-2, Ia-3, R-11 and R-12 were added with appropriate amounts of DMSO and dissolved in the original bottles to prepare stock solutions (100 mg/mL), and then the stock solutions were transferred to sterile EP tubes. Each above stock solution was hermetically stored in the dark in a refrigerator at 4°C. When the stock solution was tested, an appropriate amount of stock solution was taken and added into a new sterile EP tube, and diluted with DMSO and 1×PBS to a target concentration (working solution) wherein the solvent was 3% DMSO/1×PBS.
Preparation of modeling agent: 900 µL of methyl acetate was added into an original bottle of U46619 and mixed evenly to prepare 1 mg/mL(1 µg/µL) stock solution, which was divided into 10 µL (1 µg/µL) per sterile EP tube and stored in a refrigerator at -20°C. On the day of modeling, the stock solution was taken out and balanced at room temperature and constant temperature, and each tube was added with an appropriate amount of 0.9% sodium chloride solution (sterile) to be diluted 20-fold, so as to prepare a working solution with a concentration of 50 ng/µL.
Airway nebulized administration dosages of compound TRE and the test compounds were equimolar quantities calculated based on TRE. The dosage of compound TRE group (n=3) was 13.3 µg/kg, the dosage of compound C16-TR group (n=5) was 20.9 µg/kg, the dosage of compound Ia-1 group (n=3) was 21.2 µg/kg, the dosage of compound Ia-2 group (n=6) was 22.1 µg/kg, the dosage of compound Ia-3 group (n=6) was 23.1 µg/kg, the dosage of compound R-11 group (n=3) was 21.9 µg/kg, and the dosage of compound R-12 group (n=3) was 21.7 µg/kg. There were also a model control group (n=1) and a solvent control group (n=3).
The SD rats were injected with U46619 (25 µg /kg) through the left jugular vein at different time points after airway nebulized administration, the peak value of RVSP rise after injection with U46619 was observed and recorded, and the inhibition percentage on the RVSP rise was calculated by comparing with the basic RVSP value. The rats in the model control group were administered with U46619 by intravenous injection immediately after successful catheterization and measurement of the basic RVSP. RVSP of all animals were detected by right cardiac catheterization, and respiratory conditions of the animals were observed generally. Table-2 Time points of administrating U46619 in various groups

EP2 receptor = target: T2, EP2 receptor (Homo sapiens, UniProt P43116); test: Competitive binding to EP2 receptor against radiolabeled ligand 3H-PGE2; settings: 8 concentrations from 10 µM, 10-fold dilutions
T2 construct: purchased Merck HTS185M
Experimental: This experiment was carried out in 96-well plates to evaluate the binding affinity of the compounds of the present invention (Ia-1, Ia-2 and Ia-3) to the prostaglandin EP2 receptor by testing their ability of competitive binding to the EP2 receptor with the radiolabeled ligand ^3H-PGE2. Treprostinil was used as control. MicroBeta2 was used to detect the number of ^3H captured, and Prism software was used to analyze data. The EP2 film (Merck, Cat# HT[…], batch number 2121326) was diluted with a buffer (50 mM Hepes, PH=7.4, 5 mM MgCl2, 1 mM CaCl2, 0.5% BSA) to a final concentration of 75 μg/mL. ^3H-PGE2 was diluted to 15 nM. Test compound and control compound solutions with an initial concentration of 10 μM were prepared, and subjected to 10-fold continuous gradient dilution, with a total of 8 concentrations for testing. 5%DMSO was used as a solvent control group. 1 μL of each compound solution was added into a corresponding position in the 96-well test plate, and each well was added with 50 μL of the EP2 film (about 3.75 μg/well), and added with 50 μ L of ^3H-PGE2. Then, the well plate was sealed, and incubated with shaking at 300 rpm at room temperature for 2 hours. After finishing the incubation, GF/C plates were filtered with Perkin Elmer Filtermate Harvester, and then each plate was washed with cold eluent for 4 times, and dried at 50°C for 1 hour. After drying, bottoms of wells of the filter plate were sealed with a PerkinElmer Unifilter-96 backing tape. 50 μL of Perkin Elmer Microscint O was added. The top of the filter plate was sealed with Perkin Elmer TopSeal-A sealing film. The number of ^3H captured was detected by MicroBeta2.

SD rats [3] = test: U46619-induced rat acute pulmonary arterial pressure rise model, low-dose airway nebulized administration (RVSP); assay type: in vivo; settings: for Inhibition percentage on RVSP rise (%) (mean): 1 hour after low-dose airway nebulized administration (about 3 µg/kg, equimolar)
From the text: In this experiment, airway nebulized administration dosages of the compounds were about 1/7 of airway nebulized administration dosages in Experimental Example 5. By using a U46619-induced rat acute pulmonary arterial pressure rise model, antihypertensive effects of the compounds of the present invention after airway nebulized administration were further verified by reducing the administration dosages.
A model construction method was the same as that described in Experimental Example 5. In this experiment, dosages of groups were as follows: the dosage of compound C16-TR group was 3 µg/kg, and the dosages of equimolar compounds Ia-1, Ia-2 and Ia-3 were 3.0 µg/kg, 3.2 µg/kg and 3.3 µg/kg respectively.
The SD rats were anesthetized and then administered by airway nebulization, and then the basic right ventricular systolic pressure (RVSP) was measured by right cardiac catheterization. The SD rats were intravenously injected with U46619 (25 µg /kg) at 1 hour after airway nebulized administration of each compound, a peak value of RVSP rise after injection with U46619 was observed and recorded, and the inhibition percentage on the RVSP rise was calculated by comparing with the basic RVSP value. The number of experimental animals in each group was 1~2.

porcine esterase = test: Hydrolysis conversion rate of compounds into TRE mediated by porcine esterase; settings: experiment (c); 0.2 mg/mL, 20 U porcine esterase, 38°C; 5 minutes to 2 hours
Experimental: This experiment was designed to evaluate the conversion rates of various compounds with different ester side chain structures into the TRE under the action of esterase.
The carbon number of the ester side chain of each compound was 10, wherein the alkyl side chains of R-05, R-06 and R-08 contained 1~3 oxygen atoms respectively. Each compound was dissolved in 20 mL of ethanol to prepare a 1 mg/ml test compound solution for later use. Then, 1 mL of the test compound solution was transferred into 4 mL of PBS aqueous solution to obtain 0.2 mg/mL test compound reaction solution. The reaction solution was added with 20 U (80 µL) of porcine esterase, shaken evenly and then incubated at 38°C. After a period of reaction, samples were taken according to the following time points: 10 minutes, 30 minutes, 1 hour and 2 hours. The conversion of the test compound into TRE was detected. The hydrolysis of each sample was calculated according to measured peak areas of the reactant and the product: [formula]
Sampling time points were: 20 minutes, 40 minutes, 1 hour and 2 hours.
Sampling time points were: 5 minutes, 15 minutes, 30 minutes, 1 hour and 2 hours.

subjects = settings: cited from earlier work
[4] = cited from earlier work
[5] = 16 hours after airway nebulized administration

T2 sequence (P43116 whole entry): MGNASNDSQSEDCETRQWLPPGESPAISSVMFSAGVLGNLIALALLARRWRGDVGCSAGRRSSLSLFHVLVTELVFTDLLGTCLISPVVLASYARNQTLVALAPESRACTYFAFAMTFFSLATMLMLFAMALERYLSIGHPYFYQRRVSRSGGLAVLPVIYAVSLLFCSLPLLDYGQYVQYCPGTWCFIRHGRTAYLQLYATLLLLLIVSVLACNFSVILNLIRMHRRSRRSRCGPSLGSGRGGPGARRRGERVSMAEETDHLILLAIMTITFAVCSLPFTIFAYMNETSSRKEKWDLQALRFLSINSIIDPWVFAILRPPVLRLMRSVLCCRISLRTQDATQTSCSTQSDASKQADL
T1 sequence (P43119 whole entry): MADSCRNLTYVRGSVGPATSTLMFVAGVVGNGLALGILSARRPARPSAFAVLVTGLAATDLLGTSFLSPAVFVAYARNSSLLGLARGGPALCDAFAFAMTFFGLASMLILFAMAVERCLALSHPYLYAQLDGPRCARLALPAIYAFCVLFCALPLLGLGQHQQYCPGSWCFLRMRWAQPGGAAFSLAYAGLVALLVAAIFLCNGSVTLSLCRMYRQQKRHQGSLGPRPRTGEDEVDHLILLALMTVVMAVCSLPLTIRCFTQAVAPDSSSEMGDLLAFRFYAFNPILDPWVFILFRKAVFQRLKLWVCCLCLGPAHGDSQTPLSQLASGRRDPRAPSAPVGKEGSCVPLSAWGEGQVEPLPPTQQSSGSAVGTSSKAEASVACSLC

Compound	half-life [1]	agonist activity on IP receptor (IP receptor)	inhibition percentage on the RVSP rise (SD rats [2]; 13.3 µg/kg, 16 minutes after airway nebulized administration)	binding to the EP2 receptor (competition with 3H-PGE2) (EP2 receptor)	Inhibition percentage on RVSP rise (%) (mean) (SD rats [3])	antihypertensive effect and duration, overall (SD rats [2]; equimolar doses)	antihypertensive effect (SD rats [2]; 24 hours after airway nebulized administration)	antihypertensive effects compared with C16-TR (SD rats [2]; 1 hour and 6 hours after airway nebulized administration, equimolar doses)	antihypertensive effect (SD rats [2]; [5])	hydrolysis conversion rates (release of TRE) (porcine esterase)	side effects (subjects; 170 µg/kg and 340 µg/kg)	side effects (subjects; low dose (54 µg/kg))	antihypertensive effect (SD rats [3]; 1 hour after low-dose airway nebulized administration)	physical stability in solution on long-term storage ([4]; HFA propellant with ethanol and DSPE-PEG2000, storage >1 week)	solubility in HFA propellant ([4]; content of ethanol lower than 13%)	reaction of dissolved compound with the alcohol solvent ([4]; dissolved state, ethanol)
CCCCC[C@H](O)CC[C@@H]1[C@H]2Cc3cccc(OCC(=O)O)c3C[C@H]2C[C@H]1O [TRE, treprostinil]	about 30 minutes	strong agonist activity	about 39%	competitively inhibited the binding of the ligand ^3H-PGE2 to the EP2 receptor in a concentration-dependent manner												
CCCCC[C@H](O)CC[C@@H]1[C@H]2Cc3cccc(OCC(=O)OCCCCCCCCCCOCCCCc4ccccc4)c3C[C@H]2C[C@H]1O [Compound Ia-3]		no agonist activity		no detectable binding	83.49	stronger antihypertensive effects than C16-TR and longer durations	obvious antihypertensive effects									
CCCCC[C@H](O)CC[C@@H]1[C@H]2Cc3cccc(OCC(=O)OCCCCCCOCCCCc4ccccc4)c3C[C@H]2C[C@H]1O [Compound Ia-1]		no agonist activity		no detectable binding	67.67			better than those of C16-TR	no antihypertensive effect							
CCCCCCCCCCCCCCCCOC(=O)COc1cccc2c1C[C@H]1C[C@@H](O)[C@H](CC[C@@H](O)CCCCC)[C@H]1C2 [Compound C16-TR, treprostinil palmitate]					5.49	long-term antihypertensive effects			no antihypertensive effect	significantly prolong the hydrolysis conversion rates and release TRE slowly and steadily	developed cough and sore throat	no side effects such as cough or sore throat	no antihypertensive effect	could not remain soluble	could not be dissolved	generates ester exchange impurities with the alcohol solvent; also recorded: can react with ethanol, leading to substitution of the C16 ester by an ethyl ester

— EP4741374A1, “TREPROSTINIL DERIVATIVE, AND PREPARATION METHOD THEREFOR AND USE THEREOF” (CF PharmTech HongKong Limited, priority 2023, dated 2025)
